What was measured:
[1] = shake-flask solubility measurement, spectrophotometric at 243 nm; format: physicochemical
Description: To assess the solubility of EDA in various solvents, excess amounts of EDA were added to test tubes containing either a specific solvent or a binary mixture containing the organic solvent and water in different molar proportions. The saturated solutions were then placed in an Orbital Shaker Incubator ES-20/60 from Biosan (Riga, Latvia) and incubated at various temperatures for 24 h. Four temperature points, ranging from 25 °C to 40 °C with 5 °C intervals, were used for the incubation. The incubator temperature was precisely adjusted to within 0.1 degrees, with a variance of 0.5 degrees during the 24 h cycle. The samples were simultaneously mixed at 60 rev/min. Next, the samples were filtered using syringes equipped with PTFE filters with a pore size of 0.22 µm. To prevent precipitation due to temperature differences between the solutions and instruments, all test tubes, pipette tips, syringes, and filters were preheated. They were placed in the same incubator as the samples and heated to the same temperature before handling. This step was particularly crucial when dealing with elevated temperatures, as the temperature difference could be substantial. After filtration, small quantities of the obtained filtrate were diluted in test tubes containing methanol and measured spectrophotometrically. The density of each solution was measured by weighing a 1 mL volume in 10 mL volumetric flasks using an Eppendorf Reference 2 pipette (Hamburg, Germany) with a systematic error of 6 μL. The RADWAG AS 110 R2.PLUS analytical balance (Radom, Poland) with a precision of 0.1 mg was also used for this purpose. Solubility determination was conducted using the A360 spectrophotometer from AOE Instruments (Shanghai, China). Spectra were recorded in the wavelength range of 190 nm to 400 nm with a resolution of 1 nm. Methanol was used for both diluting the samples and the initial calibration of the spectrophotometer. The analytical wavelength was set at 243 nm, and the absorbance at this wavelength was used to determine the EDA concentration in the samples and subsequently calculate its mole fractions. To ensure accuracy, three separate measurements were performed, and the resulting values were averaged. The calibration curve for EDA was prepared by diluting an initial stock solution and measuring the resulting solutions’ spectrophotometric properties at decreased concentrations. The molar concentrations of the measured solutions ranged from 0.0023 to 0.023 mg/mL. The relationship between the absorbance values at 243 nm and the solution concentration was described by a linear equation A = 85.603 × C − 0.0179, with high linearity denoted by the determination coefficient R^2 equal to 0.9993.

[2] = poor aqueous solubility; no reference given; cited from earlier work

## CC1=NN(c2ccccc2)C(=O)C1 [Edaravone, 5-methyl-2-phenyl-4H-pyrazol-3-one]
[1]; 1,2-propanediol (PG)-water, 25 °C
  solubility at x2* = 0.9 versus pure solvent: higher solubility compared to pure solvents
[1]; 1,3-butanediol (BG)-water, 25 °C
  solubility at x2* = 0.9 versus pure solvent: higher solubility compared to pure solvents
[1]; BG-water, x2*=0.0 (water), 25 °C
  Edaravone solubility (xEDA): 0.02 (<±0.01) xEDA, ×102
[1]; BG-water, x2*=0.1, 25 °C
  Edaravone solubility (xEDA): 0.12 (±0.02) xEDA, ×102
[1]; BG-water, x2*=0.2, 25 °C
  Edaravone solubility (xEDA): 0.29 (±0.04) xEDA, ×102
[1]; BG-water, x2*=0.3, 25 °C
  Edaravone solubility (xEDA): 0.53 (±0.03) xEDA, ×102
[1]; BG-water, x2*=0.4, 25 °C
  Edaravone solubility (xEDA): 0.83 (±0.04) xEDA, ×102
[1]; BG-water, x2*=0.5, 25 °C
  Edaravone solubility (xEDA): 1.07 (±0.05) xEDA, ×102
[1]; BG-water, x2*=0.6, 25 °C
  Edaravone solubility (xEDA): 1.27 (±0.03) xEDA, ×102
[1]; BG-water, x2*=0.7, 25 °C
  Edaravone solubility (xEDA): 1.42 (±0.05) xEDA, ×102
[1]; BG-water, x2*=0.8, 25 °C
  Edaravone solubility (xEDA): 1.50 (±0.03) xEDA, ×102
[1]; BG-water, x2*=0.9, 25 °C
  Edaravone solubility (xEDA): 1.51 (±0.04) xEDA, ×102
[1]; DG-water, x2*=0.0 (water), 25 °C
  Edaravone solubility (xEDA): 0.02 (<±0.01) xEDA, ×102
[1]; DG-water, x2*=0.1, 25 °C
  Edaravone solubility (xEDA): 0.09 (±0.01) xEDA, ×102
[1]; DG-water, x2*=0.2, 25 °C
  Edaravone solubility (xEDA): 0.25 (±0.01) xEDA, ×102
[1]; DG-water, x2*=0.3, 25 °C
  Edaravone solubility (xEDA): 0.48 (±0.04) xEDA, ×102
[1]; DG-water, x2*=0.4, 25 °C
  Edaravone solubility (xEDA): 0.74 (±0.03) xEDA, ×102
[1]; DG-water, x2*=0.5, 25 °C
  Edaravone solubility (xEDA): 1.09 (±0.01) xEDA, ×102
[1]; DG-water, x2*=0.6, 25 °C
  Edaravone solubility (xEDA): 1.39 (±0.02) xEDA, ×102
[1]; DG-water, x2*=0.7, 25 °C
  Edaravone solubility (xEDA): 1.65 (±0.05) xEDA, ×102
[1]; DG-water, x2*=0.8, 25 °C
  Edaravone solubility (xEDA): 1.87 (±0.04) xEDA, ×102
[1]; DG-water, x2*=0.9, 25 °C
  Edaravone solubility (xEDA): 1.98 (±0.02) xEDA, ×102
[1]; PG-water, x2*=0.0 (water), 25 °C
  Edaravone solubility (xEDA): 0.02 (<±0.01) xEDA, ×102
[1]; PG-water, x2*=0.1, 25 °C
  Edaravone solubility (xEDA): 0.06 (±0.01) xEDA, ×102
[1]; PG-water, x2*=0.2, 25 °C
  Edaravone solubility (xEDA): 0.15 (±0.01) xEDA, ×102
[1]; PG-water, x2*=0.3, 25 °C
  Edaravone solubility (xEDA): 0.26 (±0.02) xEDA, ×102
[1]; PG-water, x2*=0.4, 25 °C
  Edaravone solubility (xEDA): 0.40 (±0.02) xEDA, ×102
[1]; PG-water, x2*=0.5, 25 °C
  Edaravone solubility (xEDA): 0.54 (±0.02) xEDA, ×102
[1]; PG-water, x2*=0.6, 25 °C
  Edaravone solubility (xEDA): 0.71 (±0.02) xEDA, ×102
[1]; PG-water, x2*=0.7, 25 °C
  Edaravone solubility (xEDA): 0.86 (±0.02) xEDA, ×102
[1]; PG-water, x2*=0.8, 25 °C
  Edaravone solubility (xEDA): 0.99 (±0.02) xEDA, ×102
[1]; PG-water, x2*=0.9, 25 °C
  Edaravone solubility (xEDA): 1.00 (±0.02) xEDA, ×102
[1]; TG-water, x2*=0.0 (water), 25 °C
  Edaravone solubility (xEDA): 0.02 (<±0.01) xEDA, ×102
[1]; TG-water, x2*=0.1, 25 °C
  Edaravone solubility (xEDA): 0.31 (±0.04) xEDA, ×102
[1]; TG-water, x2*=0.2, 25 °C
  Edaravone solubility (xEDA): 0.78 (±0.03) xEDA, ×102
[1]; TG-water, x2*=0.3, 25 °C
  Edaravone solubility (xEDA): 1.28 (±0.07) xEDA, ×102
[1]; TG-water, x2*=0.4, 25 °C
  Edaravone solubility (xEDA): 1.72 (±0.06) xEDA, ×102
[1]; TG-water, x2*=0.5, 25 °C
  Edaravone solubility (xEDA): 2.11 (±0.08) xEDA, ×102
[1]; TG-water, x2*=0.6, 25 °C
  Edaravone solubility (xEDA): 2.54 (±0.08) xEDA, ×102
[1]; TG-water, x2*=0.7, 25 °C
  Edaravone solubility (xEDA): 3.03 (±0.09) xEDA, ×102
[1]; TG-water, x2*=0.8, 25 °C
  Edaravone solubility (xEDA): 3.51 (±0.09) xEDA, ×102
[1]; TG-water, x2*=0.9, 25 °C
  Edaravone solubility (xEDA): 3.58 (±0.06) xEDA, ×102
  mole fraction solubility xEDA: 3.58 × 10^−2 mole fraction
[1]; diethylene glycol (DG)-water, 25 °C
  cosolvency effect in aqueous binary solvent: no cosolvency effect was observed
[1]; neat 1,2-propanediol (PG), x2*=1.0, 25 °C
  Edaravone solubility (xEDA): 0.85 (±0.01) xEDA, ×102
[1]; neat 1,3-butanediol (BG), x2*=1.0, 25 °C
  Edaravone solubility (xEDA): 1.43 (±0.04) xEDA, ×102
[1]; neat 2,4-dimethylphenol (DMP), 25 °C
  Edaravone solubility (xEDA): 1.88 (±0.05) xEDA, ×102
[1]; neat 2,4-dimethylphenol (DMP), 30 °C
  Edaravone solubility (xEDA): 2.82 (±0.58) xEDA, ×102
[1]; neat 2,4-dimethylphenol (DMP), 35 °C
  Edaravone solubility (xEDA): 4.08 (±0.21) xEDA, ×102
[1]; neat 2,4-dimethylphenol (DMP), 40 °C
  Edaravone solubility (xEDA): 5.65 (±0.25) xEDA, ×102
[1]; neat 4-formylmorpholine (4FM), 25 °C
  Edaravone solubility (xEDA): 1.11 (±0.01) xEDA, ×102
[1]; neat 4-formylmorpholine (4FM), 30 °C
  Edaravone solubility (xEDA): 1.46 (±0.08) xEDA, ×102
[1]; neat 4-formylmorpholine (4FM), 35 °C
  Edaravone solubility (xEDA): 1.76 (±0.19) xEDA, ×102
[1]; neat 4-formylmorpholine (4FM), 40 °C
  Edaravone solubility (xEDA): 2.17 (±0.01) xEDA, ×102
[1]; neat DMSO, 25 °C
  Edaravone solubility (xEDA): 7.58 (±0.32) xEDA, ×102
[1]; neat DMSO, 30 °C
  Edaravone solubility (xEDA): 12.25 (±0.16) xEDA, ×102
[1]; neat DMSO, 35 °C
  Edaravone solubility (xEDA): 20.1 (±0.15) xEDA, ×102
[1]; neat DMSO, 40 °C
  Edaravone solubility (xEDA): 29.81 (±1.14) xEDA, ×102
  mole fraction solubility xEDA: 29.81 × 10^−2 mole fraction
[1]; neat NMP, 25 °C
  Edaravone solubility (xEDA): 3.83 (±0.01) xEDA, ×102
[1]; neat NMP, 30 °C
  Edaravone solubility (xEDA): 4.96 (±0.49) xEDA, ×102
[1]; neat NMP, 35 °C
  Edaravone solubility (xEDA): 6.94 (±0.19) xEDA, ×102
[1]; neat NMP, 40 °C
  Edaravone solubility (xEDA): 8.61 (±0.21) xEDA, ×102
[1]; neat TEG, 25 °C
  mole fraction solubility xEDA: 4.63 × 10^−2 mole fraction
[1]; neat TEG, 40 °C
  mole fraction solubility xEDA: 21.21 × 10^−2 mole fraction
[1]; neat diethylene glycol (DG), x2*=1.0, 25 °C
  Edaravone solubility (xEDA): 2.04 (±0.06) xEDA, ×102
[1]; neat diglyme (DIG), 25 °C
  Edaravone solubility (xEDA): 2.05 (±0.02) xEDA, ×102
[1]; neat diglyme (DIG), 30 °C
  Edaravone solubility (xEDA): 2.69 (±0.04) xEDA, ×102
[1]; neat diglyme (DIG), 35 °C
  Edaravone solubility (xEDA): 3.33 (±0.11) xEDA, ×102
[1]; neat diglyme (DIG), 40 °C
  Edaravone solubility (xEDA): 4.16 (±0.06) xEDA, ×102
[1]; neat tetraglyme (TEG), 25 °C
  Edaravone solubility (xEDA): 4.63 (±0.05) xEDA, ×102
[1]; neat tetraglyme (TEG), 30 °C
  Edaravone solubility (xEDA): 8.63 (±0.22) xEDA, ×102
[1]; neat tetraglyme (TEG), 35 °C
  Edaravone solubility (xEDA): 13.05 (±0.19) xEDA, ×102
[1]; neat tetraglyme (TEG), 40 °C
  Edaravone solubility (xEDA): 21.21 (±0.64) xEDA, ×102
[1]; neat triethylene glycol (TG), 25 °C
  mole fraction solubility xEDA: 2.75 × 10^−2 mole fraction
[1]; neat triethylene glycol (TG), x2*=1.0, 25 °C
  Edaravone solubility (xEDA): 2.75 (±0.08) xEDA, ×102
[1]; neat triglyme (TIG), 25 °C
  Edaravone solubility (xEDA): 1.53 (±0.07) xEDA, ×102
[1]; neat triglyme (TIG), 30 °C
  Edaravone solubility (xEDA): 2.20 (±0.04) xEDA, ×102
[1]; neat triglyme (TIG), 35 °C
  Edaravone solubility (xEDA): 3.11 (±0.17) xEDA, ×102
[1]; neat triglyme (TIG), 40 °C
  Edaravone solubility (xEDA): 4.57 (±0.39) xEDA, ×102
[2]
  Biopharmaceutics Classification System (BCS) category: Class IV

— article PMC10574143, “Exploring the Solubility Limits of Edaravone in Neat Solvents and Binary Mixtures: Experimental and Machine Learning Study” (Molecules, 2023)
